By DC50 is commonly meant the concentration at which degradation of the target reaches its halfway point. A higher DC50 goes with degradation only at high concentration. What is called Dmax is the greatest extent of degradation seen.

Among the data in patent publication US12570662B2, “Substituted pyrrolo[1,2-b]pyridazines as bifunctional degraders of interleukin-1 receptor-associated kinases” (Nurix Therapeutics, Inc., priority 2021, dated 2026) are DC50 and Dmax values, retold here.

In the experiment the target is T1, IRAK4 (Homo sapiens, UniProt Q9NWZ3).
T1 construct: C-terminal HiBiT-tagged Jurkat cells (polyclonal cell line or clone 8D5); endogenous in cells; host or cells: Jurkat cells (polyclonal cell line or clone 8D5), HiBiT-tagged
T1 sequence (Q9NWZ3 1-460): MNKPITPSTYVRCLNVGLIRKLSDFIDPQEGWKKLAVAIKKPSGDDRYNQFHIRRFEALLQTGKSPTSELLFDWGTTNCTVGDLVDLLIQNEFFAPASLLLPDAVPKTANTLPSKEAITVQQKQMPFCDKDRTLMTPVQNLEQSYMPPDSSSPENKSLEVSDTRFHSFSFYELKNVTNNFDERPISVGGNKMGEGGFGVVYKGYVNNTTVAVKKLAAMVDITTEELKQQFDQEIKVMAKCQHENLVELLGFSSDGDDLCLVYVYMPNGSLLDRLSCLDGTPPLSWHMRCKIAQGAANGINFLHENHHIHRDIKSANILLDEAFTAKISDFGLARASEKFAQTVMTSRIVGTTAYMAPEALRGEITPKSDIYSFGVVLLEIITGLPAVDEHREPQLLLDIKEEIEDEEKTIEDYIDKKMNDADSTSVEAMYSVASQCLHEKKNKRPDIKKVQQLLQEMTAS
Kind of experiment: IRAK4 Degradation HiBit Assay. Type of experiment: cell-based. The settings on record: C-terminal HiBiT-tagged Jurkat cells, 4 hrs incubation; for DC50: % IRAK4 remaining, four-parameter fit (IC50 used as DC50); for Dmax: from fit of % IRAK4 remaining. A digest of the protocol: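 Jurkat cells carrying C-terminal HiBiT-tagged IRAK4 (polyclonal or clone 8D5) exposed to compound, 10 μM–0.1 nM final over 11 points, for 4 h at 32 °C. Remaining IRAK4 measured by lytic HiBiT/LgBiT luminescence relative to DMSO. DC50 and Dmax taken from four-parameter variable-slope fits.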
For orientation: The HiBiT peptide binds its large partner to form an active luciferase.

SMILES strings stand for the structures. Read-outs that look alike come from different tables or passages of the source.

`N#Cc1cnn2c(-c3cc(NC4CCOCC4)c(-c4nnc(N5CC6CCC(C5)N6C[C@H]5CC[C@H](Oc6ccc([C@@H]7CCC(=O)NC7=O)cn6)CC5)s4)cn3)ccc2c1` (racemic) [Example 108, 7-{4-[(oxan-4-yl)amino]-5-[5-(8-{[(1r,4r)-4-({5-[(3RS)-2,6-dioxopiperidin-3-yl]pyridin-2-yl}oxy)cyclohexyl]methyl}-3,8-diazabicyclo[3.2.1]octan-3-yl)-1,3,4-thiadiazol-2-yl]pyridin-2-yl}pyrrolo[1,2-b]pyridazine-3-carbonitrile] came in with a DC50 of 40 nM. Further, the Dmax (read-out: Dmax) came to 87%.

The molecule `N#Cc1cnn2c(-c3cc(N[C@@H]4CCOC4)c(-c4nnc(N5CC6CCC(C5)N6CC5CCN(c6ccc([C@@H]7CCC(=O)NC7=O)cn6)CC5)s4)cn3)ccc2c1` (single isomer, unassigned) [Example 124] had a half-maximal degradation concentration (DC50) of 8 nM. For the same molecule, the Dmax (read-out: Dmax) stood at 110%.

Molecule `CNc1cc(-c2ccc3cc(C#N)cnn23)ncc1-c1nnc(N2CCN(C(=O)CC[C@@H]3CCN(c4ccc([C@@H]5CCC(=O)NC5=O)cn4)C3)CC2)s1` (racemic) [Example 45, 7-{5-[5-(4-{3-[(3RS)-1-{5-[(3RS&)-2,6-dioxopiperidin-3-yl]pyridin-2-yl}pyrrolidin-3-yl]propanoyl}piperazin-1-yl)-1,3,4-thiadiazol-2-yl]-4-(methylamino)pyridin-2-yl}pyrrolo[1,2-b]pyridazine-3-carbonitrile] showed a DC50 of 13 nM. For the same molecule, the Dmax (read-out: Dmax) was found to be 113%.

Molecule `N#Cc1cnn2c(-c3cc(NC4COC4)c(-c4nnc(N5CCN(CC6CCN(c7ccc(C8CCC(=O)NC8=O)cn7)CC6)CC5)s4)cn3)ccc2c1` (racemic) [Example 61, rac-7-[5-(5-{4-[(1-{5-[(3R)-2,6-dioxopiperidin-3-yl]pyridin-2-yl}piperidin-4-yl)methyl]piperazin-1-yl}-1,3,4-thiadiazol-2-yl)-4-[(oxetan-3-yl)amino]pyridin-2-yl]pyrrolo[1,2-b]pyridazine-3-carbonitrile] came in with a DC50 of 18 nM. Besides, for the setting “read-out: Dmax”, the Dmax was determined as 111%.

Molecule `N#Cc1cnn2c(-c3cc(Nc4cnoc4)c(-c4nnc(N5CC6CCC(C5)N6CC5CCN(c6ccc([C@@H]7CCC(=O)NC7=O)cn6)CC5)s4)cn3)ccc2c1` (single isomer, unassigned) [Example 136] registered a DC50 of 25 nM. In addition, the Dmax (read-out: Dmax) turned out to be 113%.

As to `CC1(Nc2cc(-c3ccc4cc(C#N)cnn34)ncc2-c2nnc(N3CCN(CC4CCN(c5ccc(C6CCC(=O)NC6=O)cc5)CC4)CC3)s2)COC1` (racemic) [Example 76, rac-7-[5-(5-{4-[(1-{4-[(3R)-2,6-dioxopiperidin-3-yl]phenyl}piperidin-4-yl)methyl]piperazin-1-yl}-1,3,4-thiadiazol-2-yl)-4-[(3-methyloxetan-3-yl)amino]pyridin-2-yl]pyrrolo[1,2-b]pyridazine-3-carbonitrile], it took 23 nM to reach half-maximal degradation (DC50). For the same molecule, the Dmax (read-out: Dmax) was 111%.

In the case of `N#Cc1cnn2c(-c3cc(NC4CCOCC4)c(-c4nnc(N5CCN(C(=O)C6CCN(c7ccc(C8CCC(=O)NC8=O)cn7)CC6)CC5)s4)cn3)ccc2c1` (racemic) [Example 37, rac-7-(5-{5-[4-(1-{5-[(3R)-2,6-dioxopiperidin-3-yl]pyridin-2-yl}piperidine-4-carbonyl)piperazin-1-yl]-1,3,4-thiadiazol-2-yl}-4-[(oxan-4-yl)amino]pyridin-2-yl)pyrrolo[1,2-b]pyridazine-3-carbonitrile], the DC50 is 13 nM. Moreover, the Dmax (read-out: Dmax) stood at 108%.

On to `N#Cc1cnn2c(-c3cc(NC4CCOCC4)c(-c4nnc(N5CC6CCC(C5)N6CC5CCN(c6ccc([C@@H]7CCC(=O)NC7=O)cn6)CC5)s4)cn3)ccc2c1` (single isomer, unassigned) [Example 111], for which the DC50 worked out at 32 nM. In addition, the Dmax (read-out: Dmax) was determined as 110%.

Regarding `CC(C)Nc1cc(-c2ccc3cc(C#N)cnn23)ncc1-c1nnc(N2CCN(C(=O)[C@@H]3CCN(c4ccc([C@H]5CCC(=O)NC5=O)cn4)C3)CC2)s1` (racemic) [Example 20, 7-[5-(5-{4-[(3RS)-1-{5-[(3RS&)-2,6-dioxopiperidin-3-yl]pyridin-2-yl}pyrrolidine-3-carbonyl]piperazin-1-yl}-1,3,4-thiadiazol-2-yl)-4-[(propan-2-yl)amino]pyridin-2-yl]pyrrolo[1,2-b]pyridazine-3-carbonitrile], it took 20 nM to reach half-maximal degradation (DC50). The Dmax (read-out: Dmax) was found to be 98%.

In the case of `N#Cc1cnn2c(-c3cc(NC4CCOCC4)c(-c4nnc(N5CC6CCC(C5)N6CC5[C@H]6CN(c7ccc([C@H]8CCC(=O)NC8=O)cn7)C[C@@H]56)s4)cn3)ccc2c1` (mixture of isomers) [Example 101, 7-{5-[5-(8-{[(1RS&,5SR&,6RS&)-3-{5-[(3RS)-2,6-dioxopiperidin-3-yl]pyridin-2-yl}-3-azabicyclo[3.1.0]hexan-6-yl]methyl}-3,8-diazabicyclo[3.2.1]octan-3-yl)-1,3,4-thiadiazol-2-yl]-4-[(oxan-4-yl)amino]pyridin-2-yl}pyrrolo[1,2-b]pyridazine-3-carbonitrile], it took 7 nM to reach half-maximal degradation (DC50) and the Dmax was found to be 55%.

For the molecule `CC(C)Nc1cc(-c2ccc3cc(C#N)cnn23)ncc1-c1nnc(N2CC3CCC(C2)N3CC2CCN(c3ccc(N4CCC(=O)NC4=O)cn3)CC2)s1` [Example 73, 7-(5-{5-[8-({1-[5-(2,4-dioxo-1,3-diazinan-1-yl)pyridin-2-yl]piperidin-4-yl}methyl)-3,8-diazabicyclo[3.2.1]octan-3-yl]-1,3,4-thiadiazol-2-yl}-4-[(propan-2-yl)amino]pyridin-2-yl)pyrrolo[1,2-b]pyridazine-3-carbonitrile], the DC50 is 29 nM. The Dmax (read-out: Dmax) came to 105%.

Consider `C[C@H](C#N)Nc1cc(-c2ccc3cc(C#N)cnn23)ncc1-c1nnc(N2CCN(CC3CCN(c4ccc(C5CCC(=O)NC5=O)cc4)CC3)CC2)s1` (mixture of isomers) [Example 97, 7-(4-{[(1R)-1-cyanoethyl]amino}-5-(5-{4-[(1-{4-[(3RS)-2,6-dioxopiperidin-3-yl]phenyl}piperidin-4-yl)methyl]piperazin-1-yl}-1,3,4-thiadiazol-2-yl)pyridin-2-yl)pyrrolo[1,2-b]pyridazine-3-carbonitrile], for which the DC50 was 18 nM. For the same molecule, the Dmax (read-out: Dmax) came out at 111%.

In the case of `N#Cc1cnn2c(-c3cc(NC4CCOCC4)c(-c4nnc(N5CCN(C(=O)CN6CCc7cc(C8CCC(=O)NC8=O)ccc7C6)CC5)s4)cn3)ccc2c1` (racemic) [Example 66, rac-7-(5-{5-[4-(2-{6-[(3R)-2,6-dioxopiperidin-3-yl]-1,2,3,4-tetrahydroisoquinolin-2-yl}acetyl)piperazin-1-yl]-1,3,4-thiadiazol-2-yl}-4-[(oxan-4-yl)amino]pyridin-2-yl)pyrrolo[1,2-b]pyridazine-3-carbonitrile], the DC50 is 8 nM. The Dmax (read-out: Dmax) was found to be 110%.

As for `N#Cc1cnn2c(-c3cc(NC4CCOCC4)c(-c4nnc(N5CCC6(CCN(CC7CCN(c8ccc(C9CCC(=O)NC9=O)cn8)CC7)CC6)CC5)s4)cn3)ccc2c1` (racemic) [Example 33, rac-7-[5-(5-{9-[(1-{5-[(3R)-2,6-dioxopiperidin-3-yl]pyridin-2-yl}piperidin-4-yl)methyl]-3,9-diazaspiro[5.5]undecan-3-yl}-1,3,4-thiadiazol-2-yl)-4-[(oxan-4-yl)amino]pyridin-2-yl]pyrrolo[1,2-b]pyridazine-3-carbonitrile], the DC50 is 45 nM. Further, the Dmax (read-out: Dmax) came out at 101%.
